Results from US20240424134A1, “PEPTIDE HAVING INDEPENDENTLY STABILIZED HYDROPHOBIC ALPHA HELIX, PEPTIDE COMPLEX COMPRISING SAME AND USES THEREOF” (UIF (University Industry Foundation), Yonsei University, priority 2022, published 2024).

Assays:
Type in all cases: physicochemical
[1] = AFM of self-assembly with or without magnetic field
Method: AFM was performed using the NX10 system (Park Systems, Korea) in a non-contact mode with PPP-NCHR AFM probes (Nanosensors, Switzerland). The peptide complex (specimen) dispersed in an aqueous solvent was placed between neodymium magnets and measurements were compared before and after the application of a magnetic field. The magnetic field intensity was measured using a Model 450 gaussmeter (Lake Shore Cryotronics, USA).
It was confirmed that the peptide complex according to the present disclosure is highly sensitive to a magnetic field and the α-helix structure can be controlled with a magnetic field. It was also investigated whether the self-assembly process of the peptide complex is affected by a magnetic field. The peptide complexes of Examples 51 and 99 were dissolved in aqueous solvents to induce self-assembly. The aqueous solvents were sonicated to prevent aggregation for clear observation. The aqueous solvent was placed in the equipment shown in FIG. 44f and measured by AFM after incubation overnight. The AFM measurement was also made before the treatment for comparison before and after the application of the magnetic field.

[2] = CD (circular dichroism) spectroscopy of α-helix structure; settings: for [6]222/[θ]208 ratio: before magnetic field (CD), 20 μM in distilled water
Method: To evaluate the structures of a linear plasmid DNA and peptides, CD spectra were analyzed using a Chirascan CD spectrometer (Applied Photophysics, UK). […] The final concentration of the linear plasmid DNA was 30 ng/μL. All the samples were dissolved in H2O. For the formation of the artificial chromosome, a mixture of the peptide and the DNA was incubated for 12 days or longer. Scanning was performed using a 2-mm path-length cuvette. Each scan was repeated three times and averaged. MRE (mean residue ellipticity) was calculated based on the number of amino acid residues.
CD (circular dichroism) spectroscopy was performed as follows.
The CD spectra were analyzed using a Chirascan CD spectrometer (Applied Photophysics, UK). […] All the samples were dissolved in H2O. Each scan was repeated three times using a 2-mm path-length cuvette and averaged. MRE (mean residue ellipticity) was calculated based on the number of amino acid residues.

[3] = MCD (magnetic circular dichroism) under 1.6 T magnetic field; settings: magnetic field of 1.6 T applied (MCD)
Method: (§1) MCD (magnetic circular dichroism) spectra were obtained using a Jasco-815 159-L spectrophotometer (Jasco, Japan). The concentration of the peptides was 20 μM in distilled water. Measurements were performed using a 2-mm path-length cuvette. The magnetic field of the permanent magnet in the MCD accessory (PM-491) was 1.6 T. Each scan was repeated three times and averaged.
as §1, with “peptide complex” for “peptides”
MCD (magnetic circular dichroism) analysis was performed to investigate whether the helical stability of the αm peptide in the peptide complex according to the present disclosure is affected by the magnetic field. The peptide complexes of Examples 47 and 99 have partially stable α-helices. When a magnetic field of 1.6 T was applied to the peptide complexes of Examples 47 and 99 (FIGS. 44d, 44e), the contents of α-helices, i.e. the [θ]222/[6]208 ratios, were increased in both molecules. […]

[4] = NMR residual dipolar couplings (RDC) under magnetic field; settings: difference of 21.14 T and 16.45 T; 21 residues of α10; methanol-d3/chloroform-d
Method: ^1H NMR and ^2D ^1H-^15N IPAP-HSQC (in-phase/anti-phase heteronuclear single quantum coherence) NMR spectra were acquired at 298 K using a Bruker AVANCE IV 900 MHz spectrometer and a BrukerAVANCE Ill HD 700 MHz spectrometer, both equipped with cryogenic probes. The NMR sample of PEG30-α10-PEG30 was dissolved in methanol-d3/chloroform-d (1:1) containing 0.05% TFA at a concentration of 4.26 mM. The acquisition parameters of IPAP were 2048 t2×1024 t1 points, 8 scans, 0.2 second recycle delay, 14 ppm spectral width for ^1H and 26 ppm spectral width for ^15N. The acquired data were split into two data sets, IP and AP, using a TopSpin software (Bruker, Germany). […]
Anisotropic diamagnetic molecules placed in an isotropic solution are aligned when a magnetic field is applied. The behavior of the peptide according to the present disclosure under a magnetic field was analyzed. For this, RDCs (residual dipolar couplings) between ^1H-^15N amide pairs (^1DNH) were measured by NMR (nuclear magnetic resonance) at 16.45 T (700.400 MHz) and 21.14 T (900.230 MHz). […]
Specifically, ^1H NMR and ^2D ^1H-^15N IPAP-HSQC (in-phase/anti-phase heteronuclear single quantum coherence) NMR spectra were analyzed at 298 K using a BrukerAVANCE IV 900 MHz spectrometer and a BrukerAVANCE Ill HD 700 MHz spectrometer equipped with cryogenic probes. […] Peak positions were analyzed using the NMRFAM-SPARKY software.

[5] = in the absence of the magnetic field
[6] = Table 9, linear and cyclic αm-PEG10 peptide complexes, in H2O

[θ]222/[θ]208 [2, 6] | θ222 nm/θ208 nm ratio ([2]; Table 11, peptide complexes of Examples 37-97) | [6]222/[θ]208 ratio [2] | [6]222/[θ]208 ratio [3] | self-assembled structure ([1]; magnetic field (0.25 T) applied) | [θ]222/[θ]208 ([2]; Table 13, cyclic peptide complexes) | [θ]222/[θ]208 ([2]; Table 14, coil-rod-coil peptide complexes) | average RDC value (1DNH, exp) [4] [Hz] | Substance | self-assembled structure [1, 5] | self-assembled structure ([1]; magnetic field (0.07 T) applied)
0.84 | 0.84 | 0.86 | 0.91 | – | – | – | – | WAUAUAUAUAU(PEG2)5 [Example 47] | highly uniform micelle-like spherical self-assembled structures | anisotropic and unique planar nanostructures
0.93 | – | 0.89 | 1.01 | cruciform anisotropic nanostructures | 0.93 | – | – | WAUAUAUAUAU(PEG2)5 [Example 99] | vesicle-like spherical self-assembled structures | –
– | – | – | – | – | – | 1.15 | 2.007 | (PEG10)3AUAUAUAUAUAUAUAUAUAUA(PEG10)3 [Example 128] | – | –
